# In US9206232B2, “Organic compounds and their uses” (Novartis AG, priority 2009, dated 2015):
# What was measured:
# HCV = settings: ribavirin alone; cited from earlier work
# [1] = molecular target: HCV NS3-4A serine protease (full-length NS3-4A protein) (Hepatitis C virus genotype 1a (isolate 1) (HCV), UniProt P26664); assay: HCV NS3-4A protease assay; assay type: biochemical, HCV genotype 1a; settings: genotype 1a strain HCV-1, fluorogenic peptide substrate, read-out: Protease assay Ex. 12 IC50
# HCV NS3-4A serine protease (full-length NS3-4A protein), sequence (P26664 1027-1657): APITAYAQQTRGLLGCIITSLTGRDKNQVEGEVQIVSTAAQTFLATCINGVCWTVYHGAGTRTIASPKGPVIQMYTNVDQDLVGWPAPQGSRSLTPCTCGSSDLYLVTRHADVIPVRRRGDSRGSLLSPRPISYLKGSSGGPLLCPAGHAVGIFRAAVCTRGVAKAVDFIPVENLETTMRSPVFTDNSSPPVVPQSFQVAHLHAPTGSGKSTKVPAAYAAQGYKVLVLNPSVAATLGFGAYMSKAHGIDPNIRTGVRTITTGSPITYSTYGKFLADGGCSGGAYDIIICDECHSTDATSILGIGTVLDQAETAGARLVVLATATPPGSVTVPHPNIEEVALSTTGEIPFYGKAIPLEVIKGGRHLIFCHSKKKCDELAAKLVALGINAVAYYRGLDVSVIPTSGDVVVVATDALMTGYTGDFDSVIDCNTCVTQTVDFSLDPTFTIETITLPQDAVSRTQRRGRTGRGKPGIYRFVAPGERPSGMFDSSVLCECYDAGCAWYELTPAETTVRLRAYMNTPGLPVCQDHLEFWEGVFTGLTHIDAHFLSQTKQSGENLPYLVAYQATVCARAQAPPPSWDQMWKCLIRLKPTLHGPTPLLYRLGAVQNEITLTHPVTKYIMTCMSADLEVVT
# HCV NS3-4A serine protease (full-length NS3-4A protein), sequence (P26664 1658-1711 partner): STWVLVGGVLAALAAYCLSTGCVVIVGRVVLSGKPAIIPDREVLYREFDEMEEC
# Experimental: The inhibitory activity of certain compounds of Table A against HCV NS3-4A serine protease is determined in a homogenous assay using the full-length NS3-4A protein (genotype 1a, strain HCV-1) and a commercially available internally-quenched fluorogenic peptide substrate as described by Taliani, M., et al. 1996 Anal. Biochem. 240:60-67, which is incorporated by reference in its entirety.
SMILES,effect on serum levels of HCV-RNA (HCV),patients with serum amino transferase levels reduced to normal (HCV),IC50 [1]
"NC(=O)c1ncn([C@@H]2O[C@H](CO)[C@@H](O)[C@H]2O)n1 [Ribavirin, ribavirin]",does not lower serum levels of HCV-RNA,40 % of patients,
"C=C[C@@H]1C[C@]1(NC(=O)[C@@H]1C[C@@]2(CN1C(=O)[C@@H](NC(=O)[C@@H](NC(=O)[C@@H]1Cc3[nH]cnc3CN1)C(C)(C)C)C(C)(C)C)C(C)(C)C21CCC1)C(=O)NS(=O)(=O)N1CCCC1 [Example 29, (5R,8S)-7-[(2S)-2-{[(2S)-3,3-dimethyl-2-{[(6S)-4,5,6,7-tetrahydro-1H-imidazo[4,5-c]pyridin-6-ylcarbonyl]amino}butanoyl]amino}-3,3-dimethylbutanoyl]-10,10-dimethyl-N-{(1 R,2S)-1-[(pyrrolidin-1-ylsulfonyl)carbamoyl]-2-vinylcyclopropyl}-7-azadispiro[3.0.4.1]decane-8-carboxamide]",,,40 nM
"C=C[C@@H]1C[C@]1(NC(=O)[C@@H]1C[C@@]2(CN1C(=O)[C@@H](NC(=O)[C@@H](NC(=O)[C@@H]1CCCCN1C(C)C)C1CCCCC1)C1CCCC1)C(C)(C)C21CCC1)C(=O)NS(=O)(=O)N1CCCC1 [Example 66, (5R,8S)-7-[(2S)-2-{[(2S)-2-cyclohexyl-2-({[(2S)-1-isopropylpiperidin-2-yl]carbonyl}amino)acetyl]amino}-2-cyclopentylacetyl]-10,10-dimethyl-N-{(1R,2S)-1-[(pyrrolidin-1-ylsulfonyl)carbamoyl]-2-vinylcyclopropyl}-7-azadispiro[3.0.4.1]decane-8-carboxamide]",,,5.5 nM
[2H]C([2H])([2H])C([2H])(N1CCCC[C@H]1C(=O)NC(C(=O)N[C@H](C(=O)N1C[C@]2(C[C@H]1C(=O)N[C@]1(C(=O)NS(=O)(=O)N3CCCC3)C[C@H]1C=C)C(C)(C)C21CCC1)C(C)(C)C)C1CCCCC1)C([2H])([2H])[2H] (some centres unmarked) [Compound 145],,,5.9 nM
